Experimental data as given in ChEMBL document CHEMBL5500417, “Discovery of Novel 2-Oxoacetamide Derivatives as B3GAT3 Inhibitors for the Treatment of Hepatocellular Carcinoma” (J Med Chem, 2024).

Legend:
MHCC97H [1] = test: cells; details: Homo sapiens, 72 h
Description: Antitumor activity against human MHCC97H cells assessed as inhibition of cell growth measured after 72 hrs by CCK-8 assay

HCCLM3 [2] = test: cells; details: Homo sapiens, HCCLM3, 72 h
Description: Antitumor activity against human HCCLM3 cells assessed as inhibition of cell growth measured after 72 hrs by CCK-8 assay

[3] = biological target: T1, Galactosylgalactosylxylosylprotein 3-beta-glucuronosyltransferase 3 (Homo sapiens, UniProt O94766); test: Binding affinity to CM5 sensor chip immobilized human B3GAT3 assessed as dissociation constant by SPR analysis
T1 sequence (O94766 whole entry): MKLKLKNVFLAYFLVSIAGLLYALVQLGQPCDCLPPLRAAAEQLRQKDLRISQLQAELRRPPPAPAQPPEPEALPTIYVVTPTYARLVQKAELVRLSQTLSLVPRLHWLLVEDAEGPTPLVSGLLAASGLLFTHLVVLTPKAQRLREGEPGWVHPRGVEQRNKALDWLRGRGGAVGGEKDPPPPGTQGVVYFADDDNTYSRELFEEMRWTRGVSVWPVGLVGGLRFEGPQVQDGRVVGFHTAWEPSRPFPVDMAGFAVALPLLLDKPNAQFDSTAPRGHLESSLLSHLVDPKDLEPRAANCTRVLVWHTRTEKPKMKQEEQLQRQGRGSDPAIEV

MHCC97H [4] = test: In vivo-antitumor activity against human MHCC97H cells xenografted BALB/c mouse model assessed as tumor growth inhibitor at 5 mg/kg, IG once daily measured after 31 days relative to control; details: po, 744 h, read-out: TGI
HCCLM3 [5] = test: In vivo-antitumor activity against human HCCLM3 cells xenografted BALB/c mouse model assessed as reduction in tumor weight at 5 mg/kg, IG once daily measured after 31 days relative to control; details: HCCLM3, po, 744 h, read-out: INH

Structure (SMILES) | IC50 (MHCC97H [1]) | IC50 (HCCLM3 [2]) | Kd [3] | inhibition in vivo at 5 mg/kg (MHCC97H [4]) | inhibition in vivo at 5 mg/kg (HCCLM3 [5])
Cc1ccc(C(=O)N2[C@@H]3CC[C@H]2CN(C(=O)C(=O)c2c[nH]c4ccc(Br)cc24)C3)c(Cl)c1 | 18.5 µM | 26.7 µM |  |  | 
Cc1ccc(N2CCC(NC(=O)C(=O)c3c[nH]c4ccc(O)cc34)C2=O)c(Cl)c1 (centres undefined) | 72.2 µM | > 80 µM |  |  | 
Cc1ccc(N2CCC(NC(=O)C(=O)c3c[nH]c4ccc(C(=O)O)cc34)C2=O)c(Cl)c1 (centres undefined) | > 80 µM | > 80 µM |  |  | 
Cc1ccc(N2CCC(NC(=O)C(=O)c3c[nH]c4ccc(N)cc34)C2=O)c(Cl)c1 (centres undefined) | > 80 µM | > 80 µM |  |  | 
Cc1ccc(C(=O)N2CCC(C)(NC(=O)C(=O)c3c[nH]c4ccc(Br)cc34)CC2)c(Cl)c1 | 21.3 µM | 22.2 µM |  |  | 
Cc1ccc(N2CCC(NC(=O)C(=O)N3CCCc4ccccc43)C2=O)c(Cl)c1 (centres undefined) | > 80 µM | > 80 µM |  |  | 
Cc1ccc(N2CCC(NC(=O)C(=O)c3c[nH]c4ccc(Br)cc34)C2=O)cc1 (centres undefined) | > 80 µM | > 80 µM |  |  | 
Cc1ccc(N2CCC(NC(=O)CC(=O)Nc3ccc4c(c3)Cc3ccccc3-4)C2=O)c(Cl)c1 (centres undefined) | > 80 µM | 57.3 µM |  |  | 
Cc1ccc(C(=O)N2CCC(NC(=O)C(=O)c3c[nH]c4ccc(Br)cc34)CC2)c(Cl)c1 | 28.1 µM | 1530 µM |  |  | 
COc1ccc2[nH]cc(C(=O)C(=O)NC3CCN(c4ccc(C)cc4Cl)C3=O)c2c1 (centres undefined) | 37.8 µM | 34.7 µM |  |  | 
COC(=O)c1ccc2c(C(=O)C(=O)NC3CCN(c4ccc(C)cc4Cl)C3=O)c[nH]c2c1 (centres undefined) | 46.8 µM | 54.8 µM |  |  | 
Cc1ccc(C(=O)NC2CCN(C(=O)C(=O)c3c[nH]c4ccc(Br)cc34)CC2)c(Cl)c1 | 61.5 µM | 60.8 µM |  |  | 
Cc1ccc(C(=O)NC2(C)CCN(C(=O)C(=O)c3c[nH]c4ccc(Br)cc34)CC2)c(Cl)c1 | 27.3 µM | 59.2 µM |  |  | 
Cc1ccc(N2CCC(NC(=O)C(=O)c3c[nH]c4ccccc34)C2=O)c(Cl)c1 (centres undefined) | 52.7 µM | 60 µM |  |  | 
Cc1ccc(N2CCC(NC(=O)C(=O)c3c[nH]c4ccc(F)cc34)C2=O)c(Cl)c1 (centres undefined) | 35.1 µM | 44.3 µM |  |  | 
Cc1ccc(N2CCC(NC(=O)C(=O)NC3CCc4ccccc43)C2=O)c(Cl)c1 (centres undefined) | > 80 µM | 61.4 µM |  |  | 
O=C(NC1CCN(c2ccccc2)C1=O)C(=O)c1c[nH]c2ccc(Br)cc12 (centres undefined) | > 80 µM | > 80 µM |  |  | 
Cc1ccc(N2CCC(NC(=O)C(=O)c3c[nH]c4cc(C(=O)O)ccc34)C2=O)c(Cl)c1 (centres undefined) | > 80 µM | > 80 µM |  |  | 
Cc1ccc(N2CCC(NC(=O)C(=O)c3c[nH]c4ccc(C)cc34)C2=O)c(Cl)c1 (centres undefined) | 52.8 µM | 53.9 µM |  |  | 
Cc1ccc(N2CCC(NC(=O)C(=O)c3c[nH]c4ccc(Cl)cc34)C2=O)c(Cl)c1 (centres undefined) | 18.4 µM | 31 µM |  |  | 
Cc1ccc(N2CCC(NC(=O)C(=O)Nc3ccc4c(c3)OCO4)C2=O)c(Cl)c1 (centres undefined) | 25.7 µM | 24.7 µM |  |  | 
Cc1ccc(N2CCC(NC(=O)CC(=O)Nc3ccc(-c4ccccc4)cc3)C2=O)c(Cl)c1 (centres undefined) | 54.7 µM | 60.4 µM |  |  | 
Cc1ccc(C(=O)NC2CCN(C(=O)C(=O)c3c[nH]c4ccc(Br)cc34)C2)c(Cl)c1 (centres undefined) | 19.4 µM | 30.8 µM |  |  | 
Cc1ccc(N2CCC(NC(=O)C(=O)c3c[nH]c4ccc(C#N)cc34)C2=O)c(Cl)c1 (centres undefined) | 33.7 µM | 55.8 µM |  |  | 
COc1cc2nccc(Oc3ccc(NC(=O)NC4CC4)c(Cl)c3)c2cc1C(N)=O [LENVATINIB] | > 80 µM | 27.8 µM |  | 85% | 94.6%

Compounds with a lower IC50 (MHCC97H [1]), results first:

IC50 (MHCC97H [1]) | IC50 (HCCLM3 [2]) | Kd [3] | Structure (SMILES) | inhibition in vivo at 5 mg/kg (MHCC97H [4]) | inhibition in vivo at 5 mg/kg (HCCLM3 [5])
16.3 µM | 25.4 µM |  | Cc1ccc(C(=O)N2CCN(C(=O)C(=O)c3c[nH]c4ccc(Br)cc34)CC2)c(Cl)c1 |  | 
9.7 µM | > 80 µM |  | Cc1ccc(N2CCC(NC(=O)C(=O)Nc3ccc4c(c3)C(C)(C)c3ccccc3-4)C2=O)c(Cl)c1 (centres undefined) |  | 
11.8 µM | 22.2 µM |  | Cc1ccc(C(=O)N(C)C2CCN(C(=O)C(=O)c3c[nH]c4ccc(Br)cc34)CC2)c(Cl)c1 |  | 
6.19 µM | 15.8 µM | 113 µM | Cc1ccc(N2CCC(NC(=O)C(=O)c3c[nH]c4ccc(Br)cc34)C2=O)c(Cl)c1 (centres undefined) |  | 
11.8 µM | 24.9 µM |  | O=C(NC1CCN(c2ccc(F)cc2)C1=O)C(=O)c1c[nH]c2ccc(Br)cc12 (centres undefined) |  | 
17 µM | 31 µM |  | Cc1ccc(C(=O)N2CCCC(NC(=O)C(=O)c3c[nH]c4ccc(Br)cc34)C2)c(Cl)c1 (centres undefined) |  | 
14.3 µM | 14.5 µM | 291 µM | Cc1ccc(N2CCC(NC(=O)C(=O)Nc3ccc4c(c3)Cc3ccccc3-4)C2=O)c(Cl)c1 (centres undefined) |  | 
12 µM | > 80 µM |  | Cc1ccc(N2CCC(NC(=O)C(=O)c3c[nH]c4ccc(Br)cc34)C2=O)cc1Cl (centres undefined) |  | 
12.9 µM | 23.6 µM |  | Cc1ccc(C(=O)NCC2CCN(C(=O)C(=O)c3c[nH]c4ccc(Br)cc34)CC2)c(Cl)c1 |  | 
3.51 µM | 11.7 µM | 206 µM | Cc1ccc(N2CCC(NC(=O)C(=O)Nc3ccc4c(c3)CCC4)C2=O)c(Cl)c1 (centres undefined) |  | 
15.3 µM | 18.6 µM |  | O=C(NC1CCN(c2ccc(OC(F)(F)F)cc2)C1=O)C(=O)c1c[nH]c2ccc(Br)cc12 (centres undefined) |  | 
13 µM | 21.3 µM |  | Cc1ccc(C(=O)N2CCC(NC(=O)C(=O)c3c[nH]c4ccc(Br)cc34)C2)c(Cl)c1 (centres undefined) |  | 
5.59 µM | 17.7 µM | 289 µM | Cc1ccc(N2CCC(NC(=O)C(=O)Nc3ccc(-c4ccccc4)cc3)C2=O)c(Cl)c1 (centres undefined) |  | 
14.5 µM | 12.2 µM |  | Cc1ccc(N2CCC(NC(=O)C(=O)Nc3ccc4c(c3)OCCO4)C2=O)c(Cl)c1 (centres undefined) |  | 
